According to patent US10093563B2, “Method for making chelating base product used in water-based systems” (Earth Science Laboratories, priority 2015, dated 2018):

Test system: Cotton plants (Gossypium hirsutum L.)
Experiment: foliar zinc micronutrient delivery to cotton plants
Format: in vivo
Conditions: for Carotenoids / Chlorophylls / Electron Transport Rate / Membrane Leakage: cotton leaf
From the text: An illustrative example of micronutrient delivery is the delivery of zinc (Zn) complexed to the chelant detailed herein to growing plants via foliar application. In this example, the experiment design was a Randomized Complete Design of 4 treatments of 10 replications for each of five parameters: (1) total chlorophyll by measuring fluorescence, (2) total carotenoids by measuring absorbance following organic solvent extraction, (3) electron transport rate by measuring light absorption and fluorometry, (4) membrane leakage by measuring change in electrolyte concentrations, and (5) leaf tissue concentrations of zinc by digesting samples in nitric acid followed by atomic absorption spectrophotometry. Leaf samples were collected at weekly intervals after squaring. Cotton plants (Gossypium hirsutum L.) were grown in a climate controlled chamber on a 14/10 hour, 30/20° C. diurnal cycle, respectively. Individual plants were grown in 48, 3 liter pots containing nutrient deficient potting soil. Plants received identical treatment for nutrition and growth management until squaring. At squaring, the first round of measurements were made and treatments sprayed via a CO2 backpack sprayer with plants arranged in rows. Sprays were allowed to dry before returning to the climate controlled chamber to minimize cross contamination of treatments due to foliar contact. Plants were then grown for an additional two to three weeks with nutrients being supplied via zinc-free Hoagland's solution without added Zn for treatments: ESL-Zn (base product fluid solution), Zinc Sulfate, and Low Zinc. The elemental composition of Hoagland's solution is as follows: N 210 mg/L, K 235 mg/L, Ca 200 mg/L, P 31 mg/L, S 64 mg/L, Mg 48 mg/L, B 0.5 mg/L, Fe 1 to 5 mg/L, Mn 0.5 mg/L, Zn 0.05 mg/L, Cu 0.02 mg/L, and Mo 0.01 mg/L. The four treatments and descriptions were (1) “Control” (no foliar spray addition of Zn), (2) “Low Zn” (No foliar spray addition and the Zn concentration of the Hoagland's solution was reduced to 0.025 mg/L, (3) “ZnSO4” (Foliar spray equivalent of 1% solution [e.g., 8 lbs. of 36% ZnSO4 in 100 gallons H2O] at 15 gallons/acre, and (4) “ESL-Zn” (Foliar spray equivalent of 1% solution [e.g., 8 lbs. of 36% ZnSO4 in 100 gallons H2O] at 15 gallons/acre).

[1] = week 1 (at squaring, measured before foliar spray)
[2] = week 2, foliar spray equivalent of 1% solution at 15 gallons/acre
[3] = week 3, foliar spray equivalent of 1% solution at 15 gallons/acre

Question: For `O=S(=O)([O-])[O-].[Zn+2]` [ZnSO4, Zinc Sulfate], which Carotenoids [1] is on record?
Answer: 1.713 μg carotenoids/mg dry weight

Question: And the Chlorophylls [1]?
Answer: 11.88 μg pigments/mg dry weight

Question: What about the “Electron Transport Rate” value [1] of the same molecule?
Answer: 71 μmol electrons m^−2 s^−

Question: What about the “Membrane Leakage” value [1] of the same molecule?
Answer: 34.68%

Question: What about the Carotenoids [2] of the same molecule?
Answer: 2.322 μg carotenoids/mg dry weight

Question: What about the Chlorophylls [2] of the same molecule?
Answer: 12.67 μg pigments/mg dry weight

Question: What about the “Electron Transport Rate” value [2] of the same molecule?
Answer: 70 μmol electrons m^−2 s^−

Question: What about the “Membrane Leakage” value [2] of the same molecule?
Answer: 28.12%

Question: What about the Carotenoids [3] of the same molecule?
Answer: 1.559 μg carotenoids/mg dry weight

Question: What about the Chlorophylls [3] of the same molecule?
Answer: 10.72 μg pigments/mg dry weight

Question: And the “Electron Transport Rate” value [3]?
Answer: 68 μmol electrons m^−2 s^−

Question: And the “Membrane Leakage” value [3]?
Answer: 27.06%

Question: And the “Zn (leaf tissue concentration)” value [1]?
Answer: 27.46 ppm or mg/L

Question: And the “Zn (leaf tissue concentration)” value [2]?
Answer: 61.29 ppm or mg/L

Question: And the “Zn (leaf tissue concentration)” value [3]?
Answer: 27.52 ppm or mg/L
